Source: US20240383954A1, “PEPTIDE INHIBITORS OF INTERLEUKIN-23 RECEPTOR AND THEIR USE TO TREAT INFLAMMATORY DISEASES” (Janssen Biotech, Inc., priority 2020, published 2024)
Starred links: 1 amine or outer side, 2 acyl side, 3 side chain; linkers in the order of their positions; H or OH if unused. Positions of bridges follow the written chain, without caps; N, C: chain ends. Non-standard residues stand in square brackets, D forms with d. Residues, ends and D or L forms follow the SMILES beside them. *: point of attachment. Trp(7-Me) = Cc1cccc2c(C[C@H](N)C(=O)O)c[nH]c12; Abu(4-yl) = O=C([C@H](CC[*:3])N[*:1])[*:2]; 2Nal = N[C@@H](Cc1ccc2ccccc2c1)C(=O)O; AEF = NCCOc1ccc(C[C@H](N)C(=O)O)cc1; Cyclopropanecarbonyl = O=C(C1CC1)*; αMeF = C[C@](N)(Cc1ccccc1)C(=O)O; αMeE = C[C@](N)(CCC(=O)O)C(=O)O; Pen = CC(C)(S)[C@H](N)C(=O)O; αMeK = C[C@](N)(CCCCN)C(=O)O; Ac5c = NC1(C(=O)O)CCCC1; Thp = NC1(C(=O)O)CCOCC1; Aib = CC(C)(N)C(=O)O

Molecular target: IL-23R (Homo sapiens, UniProt Q5VWK5)
Test: cell-based
Conditions: PBMC pSTAT3 IC50 (nM), PBMCs from healthy donors, IL-23 5 ng/mL, 30 minutes, phosphorylated STAT3
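Also: cryopreserved PBMCs stimulated at 37 °C in 5% CO2, then lysed, with phosphorylated STAT3 quantified in lysates using a phospho-STAT panel kit.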

IL-23R, sequence (Q5VWK5 24-629): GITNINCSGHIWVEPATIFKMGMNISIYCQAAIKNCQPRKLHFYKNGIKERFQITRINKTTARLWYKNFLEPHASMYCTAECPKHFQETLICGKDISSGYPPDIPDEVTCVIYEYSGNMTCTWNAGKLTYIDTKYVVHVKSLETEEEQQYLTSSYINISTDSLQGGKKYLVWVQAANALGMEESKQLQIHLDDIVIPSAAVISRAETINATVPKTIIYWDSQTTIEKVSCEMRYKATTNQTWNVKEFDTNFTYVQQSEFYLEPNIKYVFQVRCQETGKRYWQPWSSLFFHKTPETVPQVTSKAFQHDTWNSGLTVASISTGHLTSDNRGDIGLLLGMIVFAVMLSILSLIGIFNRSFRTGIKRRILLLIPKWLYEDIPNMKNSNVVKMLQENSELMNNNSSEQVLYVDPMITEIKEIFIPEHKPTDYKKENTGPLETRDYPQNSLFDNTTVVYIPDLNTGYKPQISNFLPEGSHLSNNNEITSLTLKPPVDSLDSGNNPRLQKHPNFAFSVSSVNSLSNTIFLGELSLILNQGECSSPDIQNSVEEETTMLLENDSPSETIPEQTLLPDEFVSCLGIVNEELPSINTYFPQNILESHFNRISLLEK
Experimental: Cryopreserved peripheral blood mononuclear cells (PBMCs) from healthy donors were thawed and washed twice in ImmunoCult-XF T cell expansion medium (XF-TCEM) supplemented with CTL anti-aggregate wash. […] The cells were stimulated with cytokine for 30 minutes at 37° C. in 5% CO2, transferred onto ice for 10 minutes, and lysed. Cell lysates were stored at −80° C. until phosphorylated STAT3 was measured using the phospho-STAT panel kit (Meso Scale Discovery, K15202D).

Row | SMILES | IC50 [nM]
1 | CC(=O)N[C@H](CCCNC(=N)N)C(=O)N[C@H]1CCSC[C@@H](C(=O)N[C@@H](Cc2ccc(OCCN)cc2)C(=O)N[C@@H](Cc2ccc3ccccc3c2)C(=O)NC2(C(=O)N[C@@](C)(CCC(=O)O)C(=O)N[C@@H](CC(N)=O)C(=O)N[C@@H](Cc3ccccc3)C(=O)NC(C)(C)C(=O)N[C@@](C)(CCCCN)C(N)=O)CCOCC2)NC(=O)[C@H](CCC(N)=O)NC(=O)[C@H](Cc2c[nH]c3ccccc23)NC(=O)[C@H]([C@@H](C)O)NC(=O)[C@H](CCC(N)=O)NC1=O [Compound 43, Ac-[(D)Arg]-[Abu]-Q-T-W-Q-[Cys]-Phe[4-(2-aminoethoxy)]-[2-Nal]-[THP]-[aMeGlu]-N-F-[Aib]-[a-MeLys]-NH2] (Ac-[dR][Abu(4-yl)]QTWQC[AEF][2Nal][Thp][αMeE]NF[Aib][αMeK]-NH2; thioether 2-7) | 8.2
2 | CC(=O)N[C@H](CCCNC(=N)N)C(=O)N[C@H]1CCSC[C@@H](C(=O)N[C@@H](Cc2ccc(OCCN)cc2)C(=O)N[C@@H](Cc2ccc3ccccc3c2)C(=O)NC2(C(=O)N[C@@](C)(CCC(=O)O)C(=O)N[C@@H](CC(N)=O)C(=O)N[C@@H](Cc3ccc4ccccc4c3)C(N)=O)CCOCC2)NC(=O)[C@H](CCC(N)=O)NC(=O)[C@H](Cc2c[nH]c3ccccc23)NC(=O)[C@H]([C@@H](C)O)NC(=O)[C@H](CCC(N)=O)NC1=O [Compound 35, Ac-[(D)Arg]-[Abu]-Q-T-W-Q-[Cys]-Phe[4-(2-aminoethoxy)]-[2-Nal]-[THP]-[aMeGlu]-N-[2-Nal]-NH2] | 25
3 | CC(=O)NCCCC[C@@H]1NC(=O)[C@H](Cc2c[nH]c3c(C)cccc23)NC(=O)[C@H]([C@@H](C)O)NC(=O)[C@H](CC(N)=O)NC(=O)[C@@H](NC(C)=O)C(C)(C)SSC(C)(C)[C@@H](C(=O)N[C@@H](Cc2ccc(OCCN)cc2)C(=O)N[C@@H](Cc2ccc3ccccc3c2)C(=O)N[C@@](C)(CCCCN)C(=O)N[C@@H](CCCCNC(C)=O)C(=O)N[C@@H](CC(N)=O)C(=O)N[C@@](C)(Cc2ccccc2)C(=O)N[C@H](Cc2ccc(O)cc2)C(N)=O)NC1=O [Compound 100, Ac-[Pen]-N-T-[W(7-Me)]-[Lys(Ac)]-[Pen]-Phe[4-(2-aminoethoxy)]-[2-Nal]-[a-MeLys]-[Lys(Ac)]-N-[a-MePhe]-[(D)Tyr]-NH2] | 21
4 | CC(=O)NCCCC[C@@H]1NC(=O)[C@H](Cc2c[nH]c3ccccc23)NC(=O)[C@H]([C@@H](C)O)NC(=O)[C@H](CC(N)=O)NC(=O)[C@@H](NC(=O)[C@@H](CCCNC(=N)N)NC(C)=O)C(C)(C)SSC(C)(C)[C@@H](C(=O)N[C@@H](Cc2ccc(OCCN)cc2)C(=O)N[C@@H](Cc2ccc3ccccc3c2)C(=O)NC2(C(=O)N[C@@H](CCC(=O)O)C(=O)N[C@@H](CC(N)=O)C(=O)NC3(C(N)=O)CCOCC3)CCOCC2)NC1=O [Compound 105, Ac-[(D)Arg]-[Pen]-N-T-W-[Lys(Ac)]-[Pen]-Phe[4-(2-aminoethoxy)]-[2-Nal]-[THP]-E-N-[THP]-NH2] (Ac-[dR][Pen]NTWK(Ac)[Pen][AEF][2Nal][Thp]EN[Thp]-NH2; disulfide 2-7) | 2.2
5 | CC(=O)NCCCC[C@@H]1NC(=O)[C@H](Cc2c[nH]c3ccccc23)NC(=O)[C@H]([C@@H](C)O)NC(=O)[C@H](CC(N)=O)NC(=O)[C@@H](NC(C)=O)CSSC[C@@](C)(C(=O)N[C@@H](Cc2ccc(OCCN)cc2)C(=O)N[C@@H](Cc2ccc3ccccc3c2)C(=O)N[C@@](C)(CCCCN)C(=O)N[C@@H](CCCCNC(C)=O)C(=O)N[C@@H](CC(N)=O)C(=O)NC2(C(N)=O)CCOCC2)NC1=O [Compound 121, Ac-[Cys]-N-T-W-[Lys(Ac)]-[aMeCys]-Phe[4-(2-aminoethoxy)]-[2-Nal]-[a-MeLys]-[Lys(Ac)]-N-[THP]-NH2] | 41
6 | CC(=O)N[C@H](CCCNC(=N)N)C(=O)N[C@@H]1C(=O)N[C@@H](CC(N)=O)C(=O)N[C@@H]([C@@H](C)O)C(=O)N[C@@H](Cc2c[nH]c3c(C)cccc23)C(=O)N[C@@H](CCC(N)=O)C(=O)N[C@H](C(=O)N[C@@H](Cc2ccc(OCCN)cc2)C(=O)N[C@@H](Cc2ccc3ccccc3c2)C(=O)NC2(C(=O)N[C@@H](CCC(=O)O)C(=O)N[C@@H](CC(N)=O)C(=O)NC3(C(N)=O)CCOCC3)CCOCC2)C(C)(C)SSC1(C)C [Compound 90, Ac-[(D)Arg]-[Pen]-N-T-[W(7-Me)]-Q-[Pen]-Phe[4-(2-aminoethoxy)]-[2-Nal]-[THP]-E-N-[THP]-NH2] (Ac-[dR][Pen]NT[Trp(7-Me)]Q[Pen][AEF][2Nal][Thp]EN[Thp]-NH2; disulfide 2-7) | 3.7
7 | CC(=O)N[C@H](CCCNC(=N)N)C(=O)N[C@H]1CCSC[C@@H](C(=O)N[C@@H](Cc2ccc(OCCN)cc2)C(=O)N[C@@H](Cc2ccc3ccccc3c2)C(=O)NC2(C(=O)N[C@@](C)(CCC(=O)O)C(=O)N[C@@H](CC(N)=O)C(=O)NC3(C(N)=O)CCOCC3)CCOCC2)NC(=O)[C@H](CCC(N)=O)NC(=O)[C@H](Cc2c[nH]c3ccccc23)NC(=O)[C@H]([C@@H](C)O)NC(=O)[C@H](CCC(N)=O)NC1=O [Compound 37, Ac-[(D)Arg]-[Abu]-Q-T-W-Q-[Cys]-Phe[4-(2-aminoethoxy)]-[2-Nal]-[THP]-[aMeGlu]-N-[THP]-NH2] | 11
8 | CC(=O)NCCCC[C@H](NC(=O)C1(NC(=O)[C@H](Cc2ccc3ccccc3c2)NC(=O)[C@H](Cc2ccc(OCCN)cc2)NC(=O)[C@H]2NC(=O)[C@H](CCC(N)=O)NC(=O)[C@H](Cc3c[nH]c4ccccc34)NC(=O)[C@H]([C@@H](C)O)NC(=O)[C@H](CCC(N)=O)NC(=O)[C@@H](NC(=O)[C@@H](CCCNC(=N)N)NC(C)=O)C(C)(C)SSC2(C)C)CCOCC1)C(=O)N[C@@H](CC(N)=O)C(=O)NC1(C(N)=O)CCOCC1 [Compound 56, Ac-[(D)Arg]-[Pen]-Q-T-W-Q-[Pen]-Phe[4-(2-aminoethoxy)]-[2-Nal]-[THP]-[Lys(Ac)]-N-[THP]-NH2] | 4.9
9 | CC(=O)N[C@H](CCCNC(=N)N)C(=O)N[C@@H]1C(=O)N[C@@H](CC(N)=O)C(=O)N[C@@H]([C@@H](C)O)C(=O)N[C@@H](Cc2c[nH]c3c(C)cccc23)C(=O)N[C@@H](CCC(N)=O)C(=O)N[C@H](C(=O)N[C@@H](Cc2ccc(OCCN)cc2)C(=O)N[C@@H](Cc2ccc3ccccc3c2)C(=O)NC2(C(=O)N[C@@H](CCC(=O)O)C(=O)N[C@@H](CC(N)=O)C(=O)N[C@@](C)(Cc3ccccc3)C(N)=O)CCCC2)C(C)(C)SSC1(C)C [Compound 93, Ac-[(D)Arg]-[Pen]-N-T-[W(7-Me)]-Q-[Pen]-Phe[4-(2-aminoethoxy)]-[2-Nal]-[Acvc]-E-N-[a-MePhe]-NH2] (Ac-[dR][Pen]NT[Trp(7-Me)]Q[Pen][AEF][2Nal][Ac5c]EN[αMeF]-NH2; disulfide 2-7) | 4.6
10 | CC(=O)N[C@H](CCCNC(=N)N)C(=O)N[C@@H]1C(=O)N[C@@H](CCC(N)=O)C(=O)N[C@@H]([C@@H](C)O)C(=O)N[C@@H](Cc2c[nH]c3ccccc23)C(=O)N[C@@H](CCC(N)=O)C(=O)N[C@H](C(=O)N[C@@H](Cc2ccc(OCCN)cc2)C(=O)N[C@@H](Cc2ccc3ccccc3c2)C(=O)NC2(C(=O)N[C@@H](CCCCNC(=O)C3CC3)C(=O)N[C@@H](CC(N)=O)C(=O)N[C@@H](Cc3ccccc3)C(N)=O)CCOCC2)C(C)(C)SSC1(C)C [Compound 55, Ac-[(D)Arg]-[Pen]-Q-T-W-Q-[Pen]-Phe[4-(2-aminoethoxy)]-[2-Nal]-[THP]-[Lys(COcPr)]-N-F-NH2] (Ac-[dR][Pen]QTWQ[Pen][AEF][2Nal][Thp]K(Cyclopropanecarbonyl)NF-NH2; disulfide 2-7) | 25
11 | CC(=O)N[C@H](CCCNC(=N)N)C(=O)N[C@H]1CCSC[C@@H](C(=O)N[C@@H](Cc2ccc(OCCN)cc2)C(=O)N[C@@H](Cc2ccc3ccccc3c2)C(=O)NC2(C(=O)N[C@@](C)(CCC(=O)O)C(=O)N[C@@H](CC(N)=O)C(=O)N[C@@H](Cc3ccc(C(N)=O)cc3)C(N)=O)CCOCC2)NC(=O)[C@H](CCC(N)=O)NC(=O)[C@H](Cc2c[nH]c3ccccc23)NC(=O)[C@H]([C@@H](C)O)NC(=O)[C@H](CCC(N)=O)NC1=O [Compound 34, Ac-[(D)Arg]-[Abu]-Q-T-W-Q-[Cys]-Phe[4-(2-aminoethoxy)]-[2-Nal]-[THP]-[aMeGlu]-N-[Phe(4-CONH2)]-NH2] | 5.8
12 | CC(=O)NCCCC[C@@H]1NC(=O)[C@H](Cc2c[nH]c3c(C)cccc23)NC(=O)[C@H]([C@@H](C)O)NC(=O)[C@H](CC(N)=O)NC(=O)[C@@H](NC(C)=O)C(C)(C)SSC(C)(C)[C@@H](C(=O)N[C@@H](Cc2ccc(OCCN)cc2)C(=O)N[C@@H](Cc2ccc3ccccc3c2)C(=O)NC2(C(=O)N[C@@H](CCCCNC(=O)C(C)(C)C)C(=O)N[C@@H](CC(N)=O)C(=O)NC3(C(N)=O)CCOCC3)CCOCC2)NC1=O [Compound 141, Ac-[Pen]-N-T-[W(7-Me)]-[Lys(Ac)]-[Pen]-Phe[4-(2-aminoethoxy)]-[2-Nal]-[THP]-[Lys(COtBu)]-N-[THP]-NH2] | 3.7
13 | CC(=O)NCCCC[C@@H]1NC(=O)[C@H](Cc2c[nH]c3c(C)cccc23)NC(=O)[C@H]([C@@H](C)O)NC(=O)[C@H](CC(N)=O)NC(=O)[C@@H](NC(=O)[C@@H](CCCNC(=N)N)NC(C)=O)C(C)(C)SSC(C)(C)[C@@H](C(=O)N[C@@H](Cc2ccc(OCCN)cc2)C(=O)N[C@@H](Cc2ccc3ccccc3c2)C(=O)NC2(C(=O)N[C@@H](CCC(=O)O)C(=O)N[C@@H](CC(N)=O)C(=O)N[C@@](C)(Cc3ccccc3)C(N)=O)CCCC2)NC1=O [Compound 94, Ac-[(D)Arg]-[Pen]-N-T-[W(7-Me)]-[Lys(Ac)]-[Pen]-Phe[4-(2-aminoethoxy)]-[2-Nal]-[Acvc]-E-N-[a-MePhe]-NH2] (Ac-[dR][Pen]NT[Trp(7-Me)]K(Ac)[Pen][AEF][2Nal][Ac5c]EN[αMeF]-NH2; disulfide 2-7) | 12
14 | COc1ccc(C[C@@H](NC(=O)[C@H](CC(N)=O)NC(=O)[C@](C)(CCC(=O)O)NC(=O)C2(NC(=O)[C@H](Cc3ccc4ccccc4c3)NC(=O)[C@H](Cc3ccc(OCCN)cc3)NC(=O)[C@@H]3CSCC[C@H](NC(=O)[C@@H](CCCNC(=N)N)NC(C)=O)C(=O)N[C@@H](CCC(N)=O)C(=O)N[C@@H]([C@@H](C)O)C(=O)N[C@@H](Cc4c[nH]c5ccccc45)C(=O)N[C@@H](CCC(N)=O)C(=O)N3)CCOCC2)C(N)=O)cc1OC [Compound 79, Ac-[(D)Arg]-[Abu]-Q-T-W-Q-[Cys]-Phe[4-(2-aminoethoxy)]-[2-Nal]-[THP]-[aMeGlu]-N-[(D)Phe(3,4-diOMe)]-NH2] | 25
